Consider six molecules from PMC6008489 (Bioorganic & Medicinal Chemistry, 2018).

The term Ki denotes a dissociation constant, usually derived from enzyme kinetics or from competition with a known ligand. What is called inhibition is the drop in the measured response relative to a control, in per cent.

What all share (format): biochemical
Assay [1] has as its target T1, MPS1 (Homo sapiens, UniProt P33981).
T1 sequence (P33981 1-857): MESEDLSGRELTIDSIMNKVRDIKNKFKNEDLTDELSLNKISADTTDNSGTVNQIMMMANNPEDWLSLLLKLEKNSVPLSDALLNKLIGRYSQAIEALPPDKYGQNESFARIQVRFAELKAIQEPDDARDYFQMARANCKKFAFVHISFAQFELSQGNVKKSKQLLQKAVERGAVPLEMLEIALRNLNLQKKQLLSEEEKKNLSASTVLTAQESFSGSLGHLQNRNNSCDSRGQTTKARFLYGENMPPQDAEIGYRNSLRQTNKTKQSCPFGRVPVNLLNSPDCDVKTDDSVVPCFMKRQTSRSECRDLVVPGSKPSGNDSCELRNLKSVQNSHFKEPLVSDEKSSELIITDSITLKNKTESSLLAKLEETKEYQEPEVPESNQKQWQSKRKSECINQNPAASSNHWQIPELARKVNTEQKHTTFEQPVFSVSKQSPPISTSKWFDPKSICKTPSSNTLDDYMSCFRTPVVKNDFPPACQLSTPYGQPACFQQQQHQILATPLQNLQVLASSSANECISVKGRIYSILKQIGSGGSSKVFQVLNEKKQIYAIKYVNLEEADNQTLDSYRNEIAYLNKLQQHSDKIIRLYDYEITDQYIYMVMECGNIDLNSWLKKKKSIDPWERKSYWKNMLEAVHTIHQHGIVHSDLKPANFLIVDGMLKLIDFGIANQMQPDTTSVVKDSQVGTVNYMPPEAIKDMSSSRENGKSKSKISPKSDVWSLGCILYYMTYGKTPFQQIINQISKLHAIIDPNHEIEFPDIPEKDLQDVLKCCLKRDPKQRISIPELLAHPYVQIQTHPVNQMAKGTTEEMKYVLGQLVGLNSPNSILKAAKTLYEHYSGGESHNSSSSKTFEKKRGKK
The following applies: for Ki: calculated from mean IC50 using the Cheng-Prusoff equation; for MPS1 ligand efficiency (LE): from Ki.
Description: (§1) IC50 values were obtained for an expanded version of the fragment library using the previously described mobility shift assay.[44] Subsequently, Ki values were estimated from IC50 values to allow better comparison of the activity against targets which were measured at different substrate concentrations (Supplementary data Table 1).
(§2) IC50 values for MPS1, Aurora A and Aurora B inhibition were determined as previously described,[44] and Ki values were estimated from the mean IC50 values using the Cheng-Prusoff equation.[48]
(§3) Kinase [ATP] (M) [Enzyme] (nM) [Peptide Substrate] (M) MgCl2 (mM)
(§4) For all compounds, IC50 values for MPS1, Aurora A, and Aurora B were determined
(§5) using MPS1 and Aurora A/B mobility shift assays as described previously.1 IC50
(§6) values were calculated from a four-parameter logistic fit of percentage inhibition
(§7) versus concentration (at 8 compound concentrations) using GraphPad Prism 5
(§8) (GraphPad Software, Inc., CA, USA). Mean IC50 values were determined from two
(§9) independent measurements each carried out in duplicate. Ki values were estimated
(§10) from the mean IC50 values using the Cheng-Prusoff equation.

Assay [2] concerns the target T2, Aurora A (Homo sapiens, UniProt O14965).
T2 sequence (O14965 1-403): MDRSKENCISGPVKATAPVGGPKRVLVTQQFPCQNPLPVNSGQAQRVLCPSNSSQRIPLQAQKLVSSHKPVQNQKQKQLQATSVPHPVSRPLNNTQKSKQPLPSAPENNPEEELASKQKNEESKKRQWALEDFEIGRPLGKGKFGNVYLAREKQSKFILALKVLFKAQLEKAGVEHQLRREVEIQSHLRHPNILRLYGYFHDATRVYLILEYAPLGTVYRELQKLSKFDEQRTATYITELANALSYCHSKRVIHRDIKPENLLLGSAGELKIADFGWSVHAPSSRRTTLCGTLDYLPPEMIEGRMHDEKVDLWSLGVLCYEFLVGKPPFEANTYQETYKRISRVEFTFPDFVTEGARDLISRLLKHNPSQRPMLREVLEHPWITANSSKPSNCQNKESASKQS
The following applies: for Ki: calculated from mean IC50 using the Cheng-Prusoff equation, read-out: AurA Ki; for AurA ligand efficiency (LE): from Ki.
Description: as §1, §2, §3, §4, §5, §6, §7, §8, §9, §10

The target of assay [3] is Aurora B (Homo sapiens, UniProt Q96GD4). The following applies: for Ki: calculated from mean IC50 using the Cheng-Prusoff equation, read-out: AurB Ki; for AurB ligand efficiency (LE): from Ki.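 On all read-outs here: aurora B inhibition measured in a mobility shift assay, underlying mean IC50 taken from two independent duplicate runs at 8 compound concentrations.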
Description: as §1, §2, §3, §4, §5, §6, §7, §8, §9, §10
Assay [4] deals with T3, AurA (Homo sapiens, UniProt O14965).
T3 construct: purchased Perkin Elmer (ProfilerPro assay kit 1)
T3 sequence (O14965 1-403): T2 sequence (O14965 1-403)
Description: 26-kinase panel mobility shift assay, single concentration. The following applies: read-out: % Inhibition AurA.
Description: Mobility Shift Assay Protocol
(§11) Screening of 26 kinases using a mobility shift assay
(§12) A mobility shift assay to determine kinase inhibition was carried out using a
(§13) modified version of the ProfilerPro assay kit 1 (Perkin Elmer, Coventry, UK)
(§14) including MPS1 and Aurora B. Each kit contained an enzyme plate, a substrate
(§15) plate, reconstitution buffer, 1 M DTT, protease inhibitor cocktail and termination
(§16) buffer. Test compounds were added as a solution in DMSO.
(§17) peptide phosphorylation assay was carried out as per the manufacturer’s
(§18) instructions. The electrophoretic separation and analysis of the phosphorylated
(§19) and non-phosphorylated peptides was carried out on a 4-sipper chip using a
(§20) LabChip EZReader II (Perkin Elmer). Results were expressed as % inhibition of
(§21) peptide phosphorylation relative to control wells for 0 % (no test compound) and
(§22) 100 % (no ATP) inhibition. The percentage inhibition was calculated using the
(§23) % Inhibition = [1 - (% Conversion Sample / % Conversion 0% Inhibition Control)] x 100

Assay [5] addresses T4, RSK1 (Homo sapiens, UniProt Q15418).
T4 construct: purchased Perkin Elmer (ProfilerPro assay kit 1)
The assay is described as above. The following applies: read-out: % Inhibition RSK1.
Description: Mobility Shift Assay Protocol
as §11, §12, §13, §14, §15, §16, §17, §18, §19, §20, §21, §22, §23

In assay [6] the target is T5, PKA (Homo sapiens, UniProt P17612).
T5 construct: purchased Perkin Elmer (ProfilerPro assay kit 1)
The description is as above. The following applies: read-out: % Inhibition PKA.
Description: (§24) In order to test the biochemical activity of our fragment library, a panel of 26 structurally diverse protein kinases was used.
Mobility Shift Assay Protocol
as §11, §12, §13, §14, §15, §16
final concentration. […] The
as §17, §18, §19, §20, §21, §22, §23

For assay [7], the target named is T6, MET (Homo sapiens, UniProt P08581).
T6 construct: purchased Perkin Elmer (ProfilerPro assay kit 1)
The assay is described as above. The following applies: read-out: % Inhibition MET.
Description: as §24
Mobility Shift Assay Protocol
as §11, §12, §13, §14, §15, §16
final concentration. […] The
as §17, §18, §19, §20, §21, §22, §23

Assay [8] concerns the target T7, MAPKAPK2 (Homo sapiens, UniProt P49137).
T7 construct: purchased Perkin Elmer (ProfilerPro assay kit 1)
The assay is described as above. The following applies: read-out: % Inhibition MAPKAPK2.
Description: as §12, §13, §14, §15, §16, §17, §18, §19, §20, §21, §22, §23

The target in assay [9] is T8, LYN (Homo sapiens, UniProt P07948).
T8 construct: purchased Perkin Elmer (ProfilerPro assay kit 1)
The description is as above. The following applies: read-out: % Inhibition LYN.
Description: as §12, §13, §14, §15, §16, §17, §18, §19, §20, §21, §22, §23

Assay [10] has as its target T9, INSR (Homo sapiens, UniProt P06213).
T9 construct: purchased Perkin Elmer (ProfilerPro assay kit 1)
The assay is described as above. The following applies: read-out: % Inhibition INSR.
Description: as §24, §11, §12, §13, §14, §15, §16, §17, §18, §19, §20, §21, §22, §23

Assay [11] has as its target T10, GSK3b (Homo sapiens, UniProt P49841).
T10 construct: purchased Perkin Elmer (ProfilerPro assay kit 1)
The description is as above. The following applies: read-out: % Inhibition GSK3.
Description: as §12, §13, §14, §15, §16, §17, §18, §19, §20, §21, §22, §23

The target in assay [12] is T11, FYN (Homo sapiens, UniProt P06241).
T11 construct: purchased Perkin Elmer (ProfilerPro assay kit 1)
The assay is described as above. The following applies: read-out: % Inhibition FYN.
Description: as §12, §13, §14, §15, §16, §17, §18, §19, §20, §21, §22, §23

The target of assay [13] is T12, Erk2 (Homo sapiens, UniProt P28482).
T12 construct: purchased Perkin Elmer (ProfilerPro assay kit 1)
The description is as above. The following applies: read-out: % Inhibition Erk2.
Description: as §12, §13, §14, §15, §16, §17, §18, §19, §20, §21, §22, §23

Assay [14] concerns the target T13, CK1d (Homo sapiens, UniProt P48730).
T13 construct: purchased Perkin Elmer (ProfilerPro assay kit 1)
The description is as above. The following applies: read-out: % Inhibition CK1d.
Description: as §12, §13, §14, §15, §16, §17, §18, §19, §20, §21, §22, §23

Assay [15] addresses T14, CHK2 (Homo sapiens, UniProt O96017).
T14 construct: purchased Perkin Elmer (ProfilerPro assay kit 1)
The assay is described as above. The following applies: read-out: % Inhibition CHK2.
Description: as §12, §13, §14, §15, §16, §17, §18, §19, §20, §21, §22, §23

The target in assay [16] is T15, CHK1 (Homo sapiens, UniProt O14757).
T15 construct: purchased Perkin Elmer ProfilerPro assay kit 1
T15 sequence (O14757 1-476): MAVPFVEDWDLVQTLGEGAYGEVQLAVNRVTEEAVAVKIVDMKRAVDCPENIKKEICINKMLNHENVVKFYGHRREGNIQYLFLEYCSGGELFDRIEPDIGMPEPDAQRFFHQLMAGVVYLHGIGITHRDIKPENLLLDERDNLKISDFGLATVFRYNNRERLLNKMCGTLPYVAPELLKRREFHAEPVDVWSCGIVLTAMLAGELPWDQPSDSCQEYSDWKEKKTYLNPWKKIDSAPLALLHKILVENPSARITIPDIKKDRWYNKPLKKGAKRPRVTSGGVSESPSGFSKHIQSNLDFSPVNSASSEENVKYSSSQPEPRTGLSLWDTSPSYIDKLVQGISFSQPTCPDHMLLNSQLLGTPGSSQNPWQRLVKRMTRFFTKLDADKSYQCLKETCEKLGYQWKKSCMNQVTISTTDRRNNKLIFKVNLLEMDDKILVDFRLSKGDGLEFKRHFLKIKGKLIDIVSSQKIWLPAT
The assay is described as above. The following applies: read-out: % Inhibition CHK1.
Description: as §12, §13, §14, §15, §16, §17, §18, §19, §20, §21, §22, §23

Assay [17] concerns the target T16, ABL (Homo sapiens, UniProt P00519).
T16 construct: purchased Perkin Elmer ProfilerPro assay kit 1
Described as above. The following applies: read-out: % Inhibition ABL.
Description: Mobility Shift Assay Protocol
as §11, §12, §13, §14, §15, §16, §17, §18, §19, §20, §21, §22, §23

T6 sequence (P08581 25-1390): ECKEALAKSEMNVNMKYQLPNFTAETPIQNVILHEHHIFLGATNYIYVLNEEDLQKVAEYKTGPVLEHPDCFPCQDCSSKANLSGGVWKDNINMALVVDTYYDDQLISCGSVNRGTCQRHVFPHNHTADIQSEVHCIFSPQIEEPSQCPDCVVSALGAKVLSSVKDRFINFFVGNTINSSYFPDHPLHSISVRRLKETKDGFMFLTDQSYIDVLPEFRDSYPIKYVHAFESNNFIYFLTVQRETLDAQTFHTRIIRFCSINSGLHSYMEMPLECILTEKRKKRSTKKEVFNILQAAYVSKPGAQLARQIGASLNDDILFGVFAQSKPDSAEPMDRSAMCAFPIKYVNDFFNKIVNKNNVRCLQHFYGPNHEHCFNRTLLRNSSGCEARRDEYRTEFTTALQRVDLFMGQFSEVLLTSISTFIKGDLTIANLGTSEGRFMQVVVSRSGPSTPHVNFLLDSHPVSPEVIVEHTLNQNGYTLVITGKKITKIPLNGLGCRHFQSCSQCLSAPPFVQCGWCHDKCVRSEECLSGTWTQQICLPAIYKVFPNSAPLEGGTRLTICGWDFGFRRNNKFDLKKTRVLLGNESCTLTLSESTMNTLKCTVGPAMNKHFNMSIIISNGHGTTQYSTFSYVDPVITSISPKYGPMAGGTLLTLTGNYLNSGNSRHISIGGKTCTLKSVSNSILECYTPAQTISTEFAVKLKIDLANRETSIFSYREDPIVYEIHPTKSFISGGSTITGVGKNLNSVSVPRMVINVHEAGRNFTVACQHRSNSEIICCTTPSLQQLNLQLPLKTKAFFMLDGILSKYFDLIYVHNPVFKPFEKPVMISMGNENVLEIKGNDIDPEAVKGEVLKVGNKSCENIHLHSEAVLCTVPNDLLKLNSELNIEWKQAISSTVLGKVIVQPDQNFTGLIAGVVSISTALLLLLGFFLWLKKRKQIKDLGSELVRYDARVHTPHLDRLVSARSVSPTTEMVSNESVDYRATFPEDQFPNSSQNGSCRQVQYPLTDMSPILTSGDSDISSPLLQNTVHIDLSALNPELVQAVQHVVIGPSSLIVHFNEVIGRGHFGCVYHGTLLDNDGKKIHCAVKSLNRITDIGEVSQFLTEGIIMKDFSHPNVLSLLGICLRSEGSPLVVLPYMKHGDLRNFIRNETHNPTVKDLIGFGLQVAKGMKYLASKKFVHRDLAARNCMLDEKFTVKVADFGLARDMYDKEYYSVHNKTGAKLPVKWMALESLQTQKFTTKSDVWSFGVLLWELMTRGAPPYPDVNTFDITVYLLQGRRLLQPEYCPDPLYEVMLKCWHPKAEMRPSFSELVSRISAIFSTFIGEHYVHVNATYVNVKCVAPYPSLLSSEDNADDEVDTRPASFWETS
T10 sequence (P49841 whole entry): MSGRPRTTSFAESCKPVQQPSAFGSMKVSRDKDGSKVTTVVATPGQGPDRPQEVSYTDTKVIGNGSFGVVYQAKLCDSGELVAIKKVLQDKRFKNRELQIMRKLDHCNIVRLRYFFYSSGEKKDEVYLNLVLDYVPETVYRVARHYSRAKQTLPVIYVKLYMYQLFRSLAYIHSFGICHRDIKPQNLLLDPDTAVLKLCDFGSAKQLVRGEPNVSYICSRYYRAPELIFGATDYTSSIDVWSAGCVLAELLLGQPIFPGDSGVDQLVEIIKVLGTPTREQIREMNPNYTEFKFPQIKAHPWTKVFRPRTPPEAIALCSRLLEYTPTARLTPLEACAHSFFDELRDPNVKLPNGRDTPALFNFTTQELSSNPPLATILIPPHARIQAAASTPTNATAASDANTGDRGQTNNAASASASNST
T16 sequence (P00519 whole entry): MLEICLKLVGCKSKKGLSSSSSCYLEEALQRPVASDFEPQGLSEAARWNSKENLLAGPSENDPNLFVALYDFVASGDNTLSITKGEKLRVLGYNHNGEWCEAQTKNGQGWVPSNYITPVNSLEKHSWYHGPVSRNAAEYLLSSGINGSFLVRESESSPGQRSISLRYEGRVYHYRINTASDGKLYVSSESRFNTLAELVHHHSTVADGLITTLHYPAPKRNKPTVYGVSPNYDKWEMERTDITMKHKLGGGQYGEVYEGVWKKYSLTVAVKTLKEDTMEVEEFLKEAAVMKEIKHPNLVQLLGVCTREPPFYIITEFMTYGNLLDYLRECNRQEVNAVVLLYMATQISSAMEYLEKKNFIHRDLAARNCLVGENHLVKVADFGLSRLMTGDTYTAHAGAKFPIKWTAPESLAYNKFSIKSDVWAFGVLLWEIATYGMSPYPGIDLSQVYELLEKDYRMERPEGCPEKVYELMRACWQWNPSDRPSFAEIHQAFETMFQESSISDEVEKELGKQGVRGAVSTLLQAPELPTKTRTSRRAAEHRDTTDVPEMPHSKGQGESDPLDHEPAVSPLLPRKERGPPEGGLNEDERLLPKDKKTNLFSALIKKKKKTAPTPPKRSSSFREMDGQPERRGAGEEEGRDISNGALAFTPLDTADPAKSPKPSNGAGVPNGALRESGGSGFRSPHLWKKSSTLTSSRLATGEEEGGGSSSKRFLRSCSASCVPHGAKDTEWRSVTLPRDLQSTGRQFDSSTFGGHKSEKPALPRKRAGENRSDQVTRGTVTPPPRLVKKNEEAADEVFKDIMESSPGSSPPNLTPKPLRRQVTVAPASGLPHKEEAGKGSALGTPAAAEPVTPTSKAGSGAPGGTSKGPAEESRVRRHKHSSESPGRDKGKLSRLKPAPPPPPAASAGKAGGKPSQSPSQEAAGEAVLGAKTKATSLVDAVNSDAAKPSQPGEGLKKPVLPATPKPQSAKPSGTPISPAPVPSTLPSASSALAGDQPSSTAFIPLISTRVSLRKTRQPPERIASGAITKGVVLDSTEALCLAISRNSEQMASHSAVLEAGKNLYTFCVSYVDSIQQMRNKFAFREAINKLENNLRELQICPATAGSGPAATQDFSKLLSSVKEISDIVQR
T8 sequence (P07948 whole entry): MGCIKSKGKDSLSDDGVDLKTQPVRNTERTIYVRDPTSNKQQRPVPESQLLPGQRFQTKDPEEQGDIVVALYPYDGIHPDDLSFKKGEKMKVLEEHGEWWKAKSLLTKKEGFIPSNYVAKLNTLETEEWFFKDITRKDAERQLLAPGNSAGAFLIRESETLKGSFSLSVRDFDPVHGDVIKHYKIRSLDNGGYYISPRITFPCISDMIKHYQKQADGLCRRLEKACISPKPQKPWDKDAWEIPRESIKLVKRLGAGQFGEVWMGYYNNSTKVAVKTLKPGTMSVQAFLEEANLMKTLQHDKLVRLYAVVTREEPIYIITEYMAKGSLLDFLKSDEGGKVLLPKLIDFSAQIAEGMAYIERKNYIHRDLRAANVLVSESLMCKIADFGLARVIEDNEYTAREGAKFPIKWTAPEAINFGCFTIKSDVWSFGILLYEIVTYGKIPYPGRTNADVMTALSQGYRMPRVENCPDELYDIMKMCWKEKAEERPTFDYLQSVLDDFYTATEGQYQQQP
T9 sequence (P06213 28-1382): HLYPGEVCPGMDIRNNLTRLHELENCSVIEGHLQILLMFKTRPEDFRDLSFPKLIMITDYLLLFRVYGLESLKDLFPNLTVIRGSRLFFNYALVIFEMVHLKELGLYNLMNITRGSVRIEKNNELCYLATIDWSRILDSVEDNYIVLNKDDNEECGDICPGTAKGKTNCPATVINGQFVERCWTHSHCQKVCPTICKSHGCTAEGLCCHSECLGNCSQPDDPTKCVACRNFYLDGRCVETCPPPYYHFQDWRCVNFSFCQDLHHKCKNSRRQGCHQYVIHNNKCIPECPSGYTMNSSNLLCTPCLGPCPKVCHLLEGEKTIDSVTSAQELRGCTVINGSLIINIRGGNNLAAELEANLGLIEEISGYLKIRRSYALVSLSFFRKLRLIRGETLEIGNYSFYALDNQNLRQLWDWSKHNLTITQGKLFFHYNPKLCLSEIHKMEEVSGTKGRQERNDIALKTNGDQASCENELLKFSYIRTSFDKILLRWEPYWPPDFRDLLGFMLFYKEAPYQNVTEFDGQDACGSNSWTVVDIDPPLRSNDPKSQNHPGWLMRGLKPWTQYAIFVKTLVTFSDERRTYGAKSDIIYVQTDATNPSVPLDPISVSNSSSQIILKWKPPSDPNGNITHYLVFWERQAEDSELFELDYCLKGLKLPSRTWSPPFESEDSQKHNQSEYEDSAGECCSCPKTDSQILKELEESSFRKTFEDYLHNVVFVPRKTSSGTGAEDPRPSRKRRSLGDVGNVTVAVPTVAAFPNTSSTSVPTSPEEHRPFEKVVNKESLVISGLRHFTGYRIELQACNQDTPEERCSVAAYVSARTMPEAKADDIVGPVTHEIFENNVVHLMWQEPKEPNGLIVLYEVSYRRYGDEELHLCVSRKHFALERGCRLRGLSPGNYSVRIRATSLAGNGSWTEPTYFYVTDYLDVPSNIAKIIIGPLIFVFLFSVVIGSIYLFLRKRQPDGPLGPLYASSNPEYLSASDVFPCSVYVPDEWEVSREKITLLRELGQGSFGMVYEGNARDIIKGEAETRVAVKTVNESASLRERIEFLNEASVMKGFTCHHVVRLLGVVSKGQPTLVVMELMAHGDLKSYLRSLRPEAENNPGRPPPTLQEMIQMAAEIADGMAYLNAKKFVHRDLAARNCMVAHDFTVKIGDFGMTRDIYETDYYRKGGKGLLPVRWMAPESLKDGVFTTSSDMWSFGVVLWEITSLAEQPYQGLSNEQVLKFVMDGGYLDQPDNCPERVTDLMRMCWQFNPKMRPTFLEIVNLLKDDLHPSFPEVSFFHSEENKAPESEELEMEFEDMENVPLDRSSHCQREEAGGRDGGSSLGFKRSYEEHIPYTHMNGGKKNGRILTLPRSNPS

As for `Nc1ccc[nH]c1=O` [Compound 1, 3-aminopyridin-2-one], the Ki is greater than 1000 µM in assay [1], 361 µM in assay [2] and 160 µM in assay [3]. Moreover, in assay [2], the “AurA ligand efficiency (LE)” value is reported as 0.59. Also, the “AurB ligand efficiency (LE)” value in assay [3] stood at 0.64. The inhibition at 100 µM in [4] is 58%; in assay [5] it was 19%; in assay [6] it was 0%; in [7], 33%; in assay [8], 25%; in [9], 15%. The inhibition at 100 µM was 2% in assay [10]; 17% in [11]; 11% in [12]; 3% in assay [13]; 45% in assay [14]; 49% in assay [15]. Moreover, the inhibition at 100 µM was 37% in [16] and 5% in [17].
Take `Cn1cc(-c2c[nH]c(=O)c(N)c2)cn1` [Compound 2, 3-Amino-5-(1-methyl-1H-pyrazol-4-yl)pyridin-2(1H)-one]: the Ki in assay [1] was 94.7 µM; in assay [2], 7.5 µM; in assay [3], 3.2 µM. The “MPS1 ligand efficiency (LE)” value in assay [1] is recorded as 0.39. Moreover, the “AurA ligand efficiency (LE)” value in [2] is given as 0.53. Besides, the “AurB ligand efficiency (LE)” value in [3] stood at 0.53. In addition, the inhibition at 100 µM was 100% in assay [4]; 89% in [5]; 66% in [6]; 81% in [7]; 97% in assay [8]; 49% in assay [9]. Further, the inhibition at 100 µM in assay [10] is 25%; in assay [11], 68%; in assay [12], 34%; in assay [13], 68%; in assay [14], 72%; in assay [15] it was 99%. For the same molecule, the inhibition at 100 µM stood at 77% in assay [16] and 58% in assay [17].
Consider `COc1ncc(-c2ccncc2)cc1N` [Compound 5, 6-Methoxy-3,4′-bipyridin-5-amine], for which the results for the Ki in assay [1], in assay [2] and in assay [3] were 91.2 µM, 185 µM and 63.9 µM, respectively. In assay [1], the “MPS1 ligand efficiency (LE)” value stood at 0.37. Further, in [2], the “AurA ligand efficiency (LE)” value was 0.31. Besides, the “AurB ligand efficiency (LE)” value in [3] is given as 0.38. For the same molecule, the inhibition at 100 µM in [4] is 46%; in assay [5], 23%; in [6], 52%; in [7], 18%; in assay [8], 19%; in assay [9], 15%. Also, the inhibition at 100 µM in assay [10] turned out to be 6%; in [11], 26%; in assay [12], 9%; in [13], 12%; in assay [14] it was 38%; in assay [15], 36%. Moreover, the results for the inhibition at 100 µM in [16] and in [17] were 1% and 26%, respectively.
Turning to `Nc1cc(-c2ccnc3ccccc23)c[nH]c1=O` [Compound 6], the Ki in assay [1] was 30.2 µM; in assay [2], 76.3 µM; in assay [3], 41.7 µM. In addition, the “MPS1 ligand efficiency (LE)” value in [1] was found to be 0.34. Also, the “AurA ligand efficiency (LE)” value in assay [2] is given as 0.31. Further, in assay [3], the “AurB ligand efficiency (LE)” value worked out at 0.33. Further, the inhibition at 100 µM in assay [4] was determined as 62%; in [5], 10%; in [6] it was 48%; in assay [7], 19%; in assay [8], 32%; in [9], 27%. The inhibition at 100 µM in assay [10] worked out at 13%; in assay [11] it was 20%; in assay [12], 40%; in assay [13] it was 15%; in assay [14], 37%; in assay [15] it was 57%. Further, the inhibition at 100 µM in assay [16] was 26%; in assay [17], 66%.
In the case of `CNc1nccc(-c2c[nH]c(=O)c(N)c2)n1` [Compound 7], the inhibition constant (Ki) in assay [1] is 25.6 µM; in assay [2], 21.3 µM; in assay [3], 15.1 µM. The “MPS1 ligand efficiency (LE)” value in [1] amounted to 0.39. Further, the “AurA ligand efficiency (LE)” value in assay [2] was 0.40. Besides, the “AurB ligand efficiency (LE)” value in assay [3] is recorded as 0.41. Further, the inhibition at 100 µM in assay [4] amounted to 98%; in assay [5] it was 91%; in assay [6] it was 81%; in [7], 76%; in assay [8], 79%; in assay [9], 63%. For the same molecule, the inhibition at 100 µM in assay [10] turned out to be 80%; in [11] it was 89%; in assay [12] it was 66%; in assay [13] it was 53%; in assay [14], 79%; in assay [15] it was 98%. For the same molecule, the inhibition at 100 µM in assay [16] came out at 79%; in [17], 67%.
For `Nc1cc(-c2ccnc(NC3CC3)n2)c[nH]c1=O` [Compound 8], the figures for the inhibitory constant (Ki) in [1], in assay [2] and in assay [3] were 11 µM, 30.2 µM and 12 µM, respectively. Further, the “MPS1 ligand efficiency (LE)” value in [1] was found to be 0.37. Further, the “AurA ligand efficiency (LE)” value in [2] turned out to be 0.34. In addition, the “AurB ligand efficiency (LE)” value in assay [3] stood at 0.37. Besides, the inhibition at 100 µM in [4] was found to be 87%; in assay [5] it was 89%; in [6], 8%; in assay [7], 26%; in assay [8], 28%; in assay [9], 42%. The inhibition at 100 µM worked out at 27% in [10]; 87% in [11]; 51% in [12]; 45% in [13]; 63% in assay [14]; 61% in assay [15]. Further, the inhibition at 100 µM in assay [16] was 26%; in assay [17], 43%.
